Values joined by “and” are separate entries in the source; they are usually repeats but may differ in a detail not shown here. Equal entries are not always repeated.
Columns and labels:
[1] = system: hESC lines (KhES-1, KhES-3), monkey ESC line (CMK6.4), mouse ESC line (R1), hiPSC lines (IMR90-1, IMR90-4, 253G1, RCHIPC0003); assay: Beating cardiac colony ratio in a variety of PSC lines treated with KY02111 (serum-containing medium); format: cell-based, human; settings: KY02111 treatment, FIG. 1e
Description: All PSC lines were maintained on mitomycin C-treated mouse embryonic fibroblasts (MEF), in Primate ES Cell Culture Medium (ReproCELL Inc., Japan), with 5 ng ml^−1 bFGF for hPSCs, and without bFGF for monkey ESCs. Human ESC lines were KhES-1, KhES-3, H1, and H9 (Non-patent literatures 1, 41). Human iPSC lines were 253G1, IMR90-1, IMR90-4 (Non-patent literatures 42, 43), and RCHIPC0003. RCHIPC0003 was established from human fibroblasts by ReproCELL. The monkey ESC line was CMK6.4 (Non-patent literatures 1, 44, 45). The hESC line was used in conformity with the Guidelines for Derivation and Utilization of Human Embryonic Stem Cells of the Ministry of Education, Culture, Sports, Science, and Technology of Japan.
Confluent hESCs and hiPSCs were gently detached with CTK solution and transferred into Petri dishes (BD Biosciences) with Primate ES Cell Culture Medium (ReproCELL, Japan). Cells were held in suspension culture for 8-24 h to form aggregates. The sizes of hPSC aggregates (0.3-1 mm in diameter) are important for efficient differentiation. […] Beating colonies were counted on Day 9.

[2] = system: IMR90-1 hiPSCs; assay: Cardiac differentiation with BIO and CHIR99021 (Days 0-3) followed by WNT inhibitors, serum-free or serum medium; format: cell-based, human
Description: After pre-culture in Petri dishes as described above, cell aggregates were attached to culture dishes coated with gelatin (Sigma G2625) or human laminin 211 (BioLamina, Sweden) at 3-10×10^5 cells cm^-2, in serum-free cardiac differentiation medium: IMDM (Sigma) containing 1% MEM non-essential amino acid solution (Sigma), 1% Penicillin-Streptomycin (Gibco), 2 mM L-glutamine (Sigma), 0.5 mM L-carnitine (Sigma), 0.001% 2-Mercapcoethanol (Gibco), and 1-2% bovine serum albumin (Wako, Japan) or 0.4% human serum albumin (Sigma), with 5 μM CHIR99021 (Axon) and 2 μM BIO (Calbiochem). On Days 3-9, 10 μM KY02111 and/or other WNT inhibitors (XAV939 and/or IWP-2) were added to cell cultures, and the medium was changed every 2 d. On Day 15, the cardiac colonies were incubated with the protease solution for 5-10 min, until all colonies were detached from the bottom of the wells. The cardiac colonies were transferred into 15 ml tubes with cardiac differentiation medium including 0.1% albumin, and precipitated by gravity, the supernatant was removed, and the cardiac colonies were transferred to Ultra-low culture 6-well plates (Corning, YO-01835-24) with cardiac differentiation medium including 0.1% albumin. The floating cardiac colonies were maintained for more than 1 month, and the media were changed every 5 d. Cardiac colonies were dissociated by stirring for 1-2 h at 37° C. with the protease solution described above, cultured for 1 d on cover glasses coated with gelatin (Sigma), and fixed with 4% paraformaldehyde. After permeabilizing with Triton X, the cells were treated with 2% skim milk for 1-2 h, then incubated with primary antibodies for 2 h: NKX2.5 (rabbit polyclonal, 1:250; Abcam), αActinin (mouse monoclonal, 1:800; Sigma), cardiac TnT (mouse monoclonal, 1:100; Santa Cruz Biotechnology), Vimentin (mouse monoclonal, 1:800; Sigma V6630), and HCN4 (mouse monoclonal, 1:400; Abcam). The secondary antibodies used were Alexa546-conjugated anti-mouse IgG, Alexa488-conjugated anti-mouse IgG, and Alexa488-conjugated anti-rabbit IgG (1:1000; all from Molecular Probes, Invitrogen). Nuclei were visualized by DAPI. Images were captured under fluorescent microscopy (Olympus). The number of cTnT, αActinin, NKX2.5, HCN4, and Vimentin-positive cells were counted from three random areas, using the Metamorph imaging system (Molecular Devices). Approximately 1000 DAPI-stained cells were used to calculate the proportion of immunopositive cells (the number of immunopositive cells divided by the number of DAPI-stained cells). […] Cells were analyzed using a FACS CantoII flow cytometer (BD Biosciences). Data was analyzed using […] software (BD Biosciences).

COc1ccc(CCC(=O)Nc2nc3ccc(Cl)cc3s2)cc1OC [KY02111, 2-(3-(3,4-dimethoxyphenyl)propanamide)-6-chlorobenzothiazole]
ratio of beating colonies per all of colonies on culture dish [1]: 60-94% and 70-90%
number of beating colonies and total number of cardiomyocytes, defined medium (Alb) versus serum-containing medium (FBS) ([2]; FIG. 4e): increased more in defined medium (Alb)
proportion of cTnT-positive cells by immunostaining ([2]; albumin (serum-free)): 93.3%±4.4
differentiation efficiency (cTnT-positive cells) by FACS ([2]; cytokine- and serum-free conditions): 90.2%
differentiation efficiency (cTnT-positive cells) ([2]; with serum (FBS)): 83.7%±8.0
